Reference: patent publication EP4186918A1 (Université de Rennes, priority 2021, dated 2023)
“Also recorded” adds a separate entry of the source.

Assays:
[1] = Sedimentation after polymerization (aggregative character); format: physicochemical; details: 800 µM peptide; sedimentable peptide after polymerization as % of total concentration
Protocol: (§1) After thawing, a pre-dilution in milli Q H2O filtered through 0.2 µm was carried out in order to obtain a solution at a concentration close to the working concentration, greater than 1.25 times. This stock solution was left to incubate for 1 hour in a water bath at 25°C, and was then assayed spectrophotometrically and adjusted to the final working concentration of 1.25 times. The polymerization was initiated by adding 1/4 of the volume of 5X fibrillation buffer (50 mM MOPS, 750 mM NaCl, pH = 7.2) for a final concentration of 1X fibrillation buffer (10 mM MOPS, 150 mM NaCl, PH = 7.2). The samples were left to incubate for 1.5-2 hours at 25°C in a water bath. The study of the polymerization by fluorimetry was carried out under the same conditions, except that the 5X polymerization buffer was supplemented with Thioflavin T (ThT) at 100 µM in order to be able to observe the fluorescence. • (a) Determination of the Aggregative Character of the Peptides. […] The concentration of the supernatant was determined using the Beer-Lambert law A = ε x 1 x C; ε (peptides) = 1450 M^-1cm^-1. […] The fluorescence of the sample was then measured immediately after dilution by recording a fluorescence spectrum (470 nm to 600 nm) at an excitation wavelength of 450 nm (Perkin Elmer LS 55, PM 750, slit10).

[2] = Thioflavin T fluorescence after polymerization (amyloidogenic character); format: physicochemical; details: 800 µM peptide; ThT fluorescence normalized to 1p = 100%
Protocol: as §1

[3] = Critical Assembly Concentration (CCa) by sedimentation; format: physicochemical; details: batch of VQIVYK used in the study; fibrillation buffer 1X
Protocol: The polymerization of VQIVYK was initiated by mixing the VQIVYK peptide (at various concentrations, 52 µM to 344 µM) with 1/4 of its volume in fibrillation buffer 5X. Once polymerized, the samples were sedimented at 16,900 g for 15 minutes. The concentration of free peptide was measured by assay nanodrop 800. The concentration of polymerized peptide was thus determined using the following the relation: [1p]pellet = [1p]initial −[1p]supernatant [formula]

[4] = Garnier-Delamarche representation combining sedimentation and ThT fluorescence; format: physicochemical; details: from sedimentation and ThT fluorescence
Protocol: as §1, with “slit10). […]” for “slit10).”

VQIVYK (PHF6) = assay: Polymerization kinetics of 1p with selected peptides, ThT spectrofluorimetry; format: biochemical, human
Protocol: (§2) After thawing, a pre-dilution of the peptides of interest in sterile water was carried out in order to obtain, for each peptide, a solution at a concentration close to the working concentration. The peptides were then left to incubate at 4°C overnight. On the day of the experiment, the peptide solutions were sonicated for 10 minutes, left to stand for one hour at room temperature, sonicated again for 10 minutes and assayed spectrophotometrically at 280 nm (ε = 1450 M^-1cm^-1). The UV spectra were previously normalized to 0 at 300 nm. The solutions were prepared at concentrations of peptides 1/4 above that desired in the end. The polymerization of VQIVYK was initiated by adding 1/4 of the volume of fibrillation buffer 5X for a final concentration of fibrillation buffer 1X (10 mM MOPS, 150 mM NaCl, pH = 7.2).
The analyses were carried out on a spectrofluorometer (LS 55 from Perkin Elmer) fitted with a 4-cell rack. Black quartz cells (0.2x1.0 cm) were used. Excitation and emission wavelengths were 450 nm and 480 nm, respectively, and the sensitivity (Photomultiplier "PM") was set at 800 V. The size of the slits was varied from 3 nm to 6 nm. Normalization of each kinetics was performed with respect to the position of the cell on the rack.
The results were first smoothed over 10 points with the "smooth" option of the KaleidaGraph software. After normalization with respect to the position of the cells in the rack, each start of kinetics was adjusted to 0 before the addition of the fibrillation buffer. Finally, the results of each kinetics were normalized relative to the fluorescence intensity of the 1p control after 100 minutes of polymerization considered to be 100%.

[5] = Polymerization kinetics of selected peptide alone, ThT spectrofluorimetry; format: physicochemical; details: 310 µM, ThT fluorescence
Protocol: as §2
The analyses were carried out on a spectrofluorometer (LS 55 from Perkin Elmer) fitted with a 4-cell rack. Black quartz cells (0.2x1.0 cm) were used. […]
The results were first smoothed over 10 points with the "smooth" option of the KaleidaGraph software. […] Finally, the results of each kinetics were normalized relative to the fluorescence intensity of the 1p control after 100 minutes of polymerization considered to be 100%.

Substance	% sedimentation [1] [%]	% fluorescence [2] [%]	Critical Assembly Concentration (CCa) [3] [µM]	amyloidogenic and aggregative character [4]	category of polymerization kinetics of 1p in presence of peptide (VQIVYK (PHF6); [1p] = 155 µM, [selected peptide] = 310 µM)	effect on polymerization of 1p (VQIVYK (PHF6); [1p] = 155 µM, [selected peptide] = 310 µM, thresholds 50% rate, 100% fluorescence intensity)	classification of inhibitory effect (3 categories) (VQIVYK (PHF6); inhibition of PHF6 aggregation)	persistence of inhibitory effect (VQIVYK (PHF6); polymerization followed for 15 hours)	polymerization of peptide alone [5]
Ac-VQIVYK-NH2 [1p, VQIVYK]	94	100	32	strong amyloidogenic and self-aggregative potential					
Ac-YQIVVK-NH2 [6tp, YQIVVK]	0	1.3		weakly amyloidogenic and weakly aggregative	slow compared to 1p alone and which have a lower fluorescence intensity	clearly inhibited; also recorded: marked inhibitory effect	with a strong inhibitory effect	the inhibitory effect persisted	do not polymerize on their own
